{
  "source": "paper PMC9332833",
  "about": "(Cancers, 2022)",
  "key": {"K562-MDR1 cells": {"system": "K562-MDR1 cells", "assay": "Annexin V-FITC/PI apoptosis measurement, K562-MDR1", "type": "cell-based, human", "settings": "5 µM, 24 h", "experimental": "Cells were seeded in 6-well plates (K562 or K562-MDR1) or in 24-well plates (CD34^+ cells). After 24 h, BK124.1 or DMSO was added. After a further 24 h, cells were stained using the Annexin V-FITC kit for the detection of apoptosis (BD, Franklin Lakes, NJ, USA) and immediately analyzed on a BD FACSCalibur using CellQuest software (BD, Franklin Lakes, NJ, USA). […]\nincubated overnight at 37 °C and analyzed using an iMark Microp late absorbance reader (Bio-Rad, Hercules, CA, USA). Results were calculated relative to control cells treated with DMSO only.\n[…] CD34+ cells were plated at a concentration of 2.5 × 10^5 cells/mL in a 24-well plate. […] A f t e r a further 24 hours, cells were harvested and stained according to the manufacturer's protocol using the Annexin V-FITC kit for the detection of apoptosis (BD, Franklin Lakes, NJ, USA). Stained cells were immediately analyzed on a BD FACSCalibur using CellQuest softwa re (BD, Franklin Lakes, NJ, USA).\nCells were seeded at a concentration of 1-2 × 10^5 cells/mL in a 6-well plate. After 24 hours of pre-incubation, BK124.1 in DMSO was added to the cells (vDMSO/vmedium), and incubated for 24 or 48 hours.\nAfter incubation, cells were washed twice with ice-cold PBS (Mg2+ and Ca2+-free), resuspended in ice-cold 70% ethanol, and placed at -20 °C for 24 hours. […]\nFlow cytometry analysis of CD243 (P-glycoprotein) […]"}, "[1]": {"assay": "Pharmacokinetics in Wistar rats", "type": "in vivo, Wistar rat", "experimental": "Five Wistar rats were injected intravenously (IV) with BK124.1 at 5 mg/kg or 10 mg/kg concentration, in 10% Solutol HS15/10% ethanol. The blood was taken from each animal after 5, 15, and 30 min, 1, 2, 6, and 24 h post-injection. Blood BK124.1 concentration was measured using mass spectrometry."}, "K562 cells": {"system": "K562 cells", "assay": "Immunoblotting of CML signaling proteins", "type": "cell-based, human", "settings": "5 µM", "experimental": "K562 cells were plated at a concentration of 1–2 × 10^5 cells/mL in a 6-well plate. After 24 h of pre-incubation, BK124.1 or DMSO was added and cells were incubated for a specified time, after which cells were lysed with RIPA buffer (Sigma-Aldrich, St. Louis, MO, USA) and supplemented with c0mplete Protease Inhibitor (Roche, Basel, Switzerland) and PhosSTOP (Roche, Basel, Switzerland). Protein concentration was measured using Pierce BCA Protein Assay Kit (Thermo Fisher Scientific, Waltham, MA, USA) and adjusted to contain equal amount of protein (20 µg) in equal volume. Protein lysates were separated by SDS-PAGE electrophoresis (TGX StainFree, Bio-Rad, Hercules, CA, USA) and transferred onto the PVDF membranes (AppliChem GmbH ITW Reagents, Darmstadt, Germany). Membranes were blocked with 5% non-fat powdered milk, then incubated with primary antibodies overnight at 4 °C followed by HRP-conjugated antibodies (Supplementary Methods). Blots were developed using Clarity Western ECL Substrate and analyzed with ChemiDoc XRS+ (Bio-Rad, Hercules, CA, USA). Protein levels normalized to controls were determined using ImageJ software.\nK562 cells were plated at a concentration of 1.5 × 10^5 cells/mL in a 6-well plate. After 24 h pre-incubation, BK124.1 in DMSO was added and incubated for the specified time. Next, cytosolic and nuclear cell fractions were separated as described. […]"}},
  "data": [
    {"smiles": "CCC12C(=O)C(CC)(C(c3ccccc3)=C1c1ccccc1)C1C(=O)N(CC(O)CNC(C)C)C(=O)C12", "note": "(centres unmarked) [BK124.1, 4-[2-hydroxy-3-(propan-2-ylamino)propyl]-1,7-diethyl-8,9-diphenyl-4-azatricyclo [5.2.1.02,6]dec-8-ene-3,5,10-trione]", "values": [
      {"measurement": "Apoptosis", "setting": "K562-MDR1 cells", "result": 30.1, "unit": "%"},
      {"measurement": "Time BK124.1 remains detectable in the peripheral blood", "setting": "[1]; IV 10 mg/kg (Figure 1A)", "result": 24, "unit": "h"},
      {"measurement": "half-life", "setting": "[1]; Wistar, rat, IV 10 mg/kg, blood", "result": 4.39, "unit": "h"},
      {"measurement": "Level of BCR-ABL1, STAT5, AKT, mTOR and NF-κB proteins", "setting": "K562 cells; first changes after 4 and 8 h", "result": "decrease in the level"},
      {"measurement": "Level of FOXO3A and p21waf1/cip1 proteins", "setting": "K562 cells; from 4 h, maximum after 8 h, mainly nuclear fraction", "result": "increase in the level"}
    ]}
  ]
}
